These results are taken from patent publication US6498168B2, “Muscarinic antagonists” (Schering Corporation, priority 1995, dated 2002).

Counter-ions that a name gives are not always drawn. Like-named read-outs stand apart in the source and are kept apart here.

In data set [1] the test system is ACh release from striatum. Format: in vivo, rat. To be noted: for Peak ACh release as % increase over Baseline: striatum of conscious rat. The procedure: Surgery: For these studies, male Sprague-Dawley Rats (250-350 g) were anesthetized with sodium pentobarbital (54 mg/kg, ip) and placed on a Kopf sterotaxic apparatus. The skull was exposed and drilled through to the dura at a point 0.2 mm anterior and 3.0 mm lateral to the bregma. At these coordinates, a guide cannula was positioned at the outer edge of the dura through the drilled opening, lowered perpendicularly to a depth of 2.5 mm, and permanently secured with dental cement to bone screws. Following the surgery, rats were given ampicillin (40 mg/kg, ip) and individually housed in modified cages. A recovery period of approximately 3 to 7 days was allowed before the microdialysis procedure was undertaken.
Microdialysis: All of the equipment and instrumentation used to conduct in vivo microdialysis was obtained from Bioanalytical Systems, Inc. (BAS). The microdialysis procedure involved the insertion through the guide cannula of a thin, needle-like perfusable probe (CMA/12,3 mm×0.5 mm) to a depth of 3 mm in striatum beyond the end of the guide. The probe was connected beforehand with tubing to a microinjection pump (CMA-/100). Rats were collared, tethered, and, following probe insertion, were placed in a large, clear, plexiglass bowl with litter material and access to food and water. The probe was perfused at 2 μl/min with Ringer's buffer (NaCl 147 mM; KCl 3.0 mM; CaCl2 1.2 mM; MgCl2 1.0 mM) containing 5.5 mM glucose, 0.2 mM L-ascorbate, and 1 μM neostigmine bromide at pH 7.4). To achieve stable baseline readings, microdialysis was allowed to proceed for 90 minutes prior to the collection of fractions. Fractions (20 μl) were obtained at 10 minute intervals over a 3 hour period using a refrigerated collector (CMA170 or 200). Four to five baseline fractions were collected, following which the drug or combination of drugs to be tested was administered to the animal. Upon completion of the collection, each rat was autopsied to determine accuracy of probe placement.
Acetylcholine (ACh) analysis: The concentration of ACh in collected samples of microdialysate was determined using HPLC/electrochemical detection. Samples were auto-injected (Waters 712 Refrigerated Sample Processor) onto a polymeric analytical HPLC column (BAS, MF-6150) and eluted with 50 mM Na2HPO4, pH 8.5. To prevent bacterial growth, Kathon CG reagent (0.005%) (BAS) was included in the mobile phase. Eluent from the analytical column, containing separated ACh and choline, was then immediately passed through an immobilized enzyme reactor cartridge (BAS, MF-6151) coupled to the column outlet. The reactor contained both acetylcholinesterase and choline oxidase covalently bound to a polymeric backbone. […] Data acquisition was carried out using an IBM Model 70 computer equipped with a microchannel IEEE board. Integration and quantification of peaks were accomplished using “Maxima” chromatography software (Waters Corporation). Total run time per sample was 11 minutes at a flow rate of 1 ml/min. Retention times for acetylcholine and choline were 6.5 and 7.8 minutes, respectively. To monitor and correct for possible changes in detector sensitivity during chromatography, ACh standards were included at the beginning, middle and end of each sample queue.
Increases in ACh levels are consistent with presynaptic m2 receptor antagonism.

The next data set has as its system ACh release from cortex. Briefly: Microdialysis, ACh release from cortex of conscious rat. Format: in vivo.
In data set [2] the target is T1, cloned human m1 muscarinic receptor (Homo sapiens, UniProt P11229).
T1 sequence (P11229 1-460): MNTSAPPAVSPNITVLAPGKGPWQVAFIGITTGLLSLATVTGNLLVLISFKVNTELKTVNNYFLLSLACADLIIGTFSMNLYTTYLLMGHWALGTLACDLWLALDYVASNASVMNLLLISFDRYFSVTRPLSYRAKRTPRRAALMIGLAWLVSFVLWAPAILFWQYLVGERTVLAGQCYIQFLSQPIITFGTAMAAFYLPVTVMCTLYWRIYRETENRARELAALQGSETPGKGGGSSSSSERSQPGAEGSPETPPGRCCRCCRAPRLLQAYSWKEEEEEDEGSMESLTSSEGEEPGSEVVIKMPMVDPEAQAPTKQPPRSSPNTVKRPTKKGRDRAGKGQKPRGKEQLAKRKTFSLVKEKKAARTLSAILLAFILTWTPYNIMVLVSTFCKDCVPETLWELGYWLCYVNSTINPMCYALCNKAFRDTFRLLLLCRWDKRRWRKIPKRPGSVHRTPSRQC
The experiment in a line: Muscarinic binding activity, 3H-QNB, m1. To be noted: range given for the named group of compounds; read-out: Ki, nM, m1. The protocol: (§1) The compound of interest is tested for its ability to inhibit binding to the cloned human m1, m2, m3, and m4 muscarinic receptor subtypes. The sources of receptors in these studies were membranes from stably transfected CHO cell lines which were expressing each of the receptor subtypes. Following growth, the cells were pelleted and subsequently homogenized using a Polytron in 50 volumes cold 10 mM Na/K phosphate buffer, pH 7.4 (Buffer B). The homgenates were centrifuged at 40,000×g for 20 minutes at 4° C. The resulting supernatants were discarded and the pellets were resuspended in Buffer B at a final concentration of 20 mg wet tissue/ml. These membranes were stored at −80° C. until utilized in the binding assays described below.
(§2) Binding to the cloned human muscarinic receptors was performed using ^3H-quinuclidinyl benzilate (QNB) (Watson et al., 1986). Briefly, membranes (approximately 8, 20, and 14 μg of protein assay for the m1, m2, and m4 containing membranes, respectively) were incubated with ^3H-QNB (final concentration of 100-200 pM) and increasing concentrations of unlabeled drug in a final volume of 2 ml at 25° C. for 90 minutes. Non-specific binding was assayed in the presence of 1 μM atropine. The incubations were terminated by vacuum filtration over GF/B glass fiber filters using a Skatron filtration apparatus and the filters were washed with cold 10 mM Na/K phosphate butter, pH 7.4. Scintillation cocktail was added to the filters and the vials were incubated overnight. The bound radioligand was quantified in a liquid scintillation counter (50% efficiency). The resulting data were analyzed for IC50 values (i.e. the concentration of compound required to inhibit binding by 50%) using the EBDA computer program (McPherson, 1985). Affinity values (Ki) were then determined using the following formula (Cheng and Prusoff, 1973); [formula]
(§3) To determine the degree of selectivity of a compound for binding the m2 receptor, the Ki value for m1 receptors was divided by the Ki value for m2 receptors. A higher ratio indicates a greater selectivity for binding the m2 muscarinic receptor.

For data set [3], the target named is T2, cloned human m4 muscarinic receptor (Homo sapiens, UniProt P08173).
T2 sequence (P08173 1-479): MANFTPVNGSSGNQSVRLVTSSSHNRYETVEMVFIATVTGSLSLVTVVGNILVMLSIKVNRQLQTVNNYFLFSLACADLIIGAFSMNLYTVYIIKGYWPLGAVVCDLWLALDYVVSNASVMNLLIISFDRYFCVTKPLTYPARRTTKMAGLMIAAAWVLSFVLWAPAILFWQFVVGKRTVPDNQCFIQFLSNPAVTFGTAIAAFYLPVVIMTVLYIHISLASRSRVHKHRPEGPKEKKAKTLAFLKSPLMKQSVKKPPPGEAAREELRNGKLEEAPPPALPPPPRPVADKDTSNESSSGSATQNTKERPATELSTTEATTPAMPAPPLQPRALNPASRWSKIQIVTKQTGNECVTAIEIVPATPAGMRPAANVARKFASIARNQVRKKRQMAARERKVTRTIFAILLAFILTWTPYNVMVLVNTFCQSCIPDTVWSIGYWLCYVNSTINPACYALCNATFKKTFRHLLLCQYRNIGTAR
The experiment in a line: Muscarinic binding activity, 3H-QNB, m4. As to conditions: range given for the named group of compounds; read-out: Ki, nM, m4. The protocol: as §1, §2

Data set [4] deals with T3, cloned human m2 muscarinic receptor (Homo sapiens, UniProt P08172).
T3 sequence (P08172 1-466): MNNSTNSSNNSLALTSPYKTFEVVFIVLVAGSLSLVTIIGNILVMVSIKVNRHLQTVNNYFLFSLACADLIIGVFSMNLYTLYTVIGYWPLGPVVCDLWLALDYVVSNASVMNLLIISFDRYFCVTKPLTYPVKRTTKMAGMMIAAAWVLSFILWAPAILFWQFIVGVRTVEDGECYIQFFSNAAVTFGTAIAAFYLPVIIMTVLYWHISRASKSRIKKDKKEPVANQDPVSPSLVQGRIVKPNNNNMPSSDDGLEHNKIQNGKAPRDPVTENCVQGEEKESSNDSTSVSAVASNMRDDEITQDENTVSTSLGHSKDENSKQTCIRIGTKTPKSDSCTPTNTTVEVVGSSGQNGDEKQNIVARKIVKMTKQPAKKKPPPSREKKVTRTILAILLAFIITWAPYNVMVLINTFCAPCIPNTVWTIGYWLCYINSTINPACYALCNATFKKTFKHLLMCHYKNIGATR
The experiment in a line: Muscarinic binding activity, 3H-QNB, m2. As to conditions: range given for the named group of compounds; read-out: Ki, nM, m2. The procedure:
as §1, §2, §3

Regarding `O=C(O)/C=C\C(=O)O.c1ccc(Oc2ccc(C3(N4CCN(C5CCCCC5)CC4)CCSCC3)cc2)cc1`, the melting point fell in the range of 137 to 139 °C.

The compound `C=C(c1ccc(Sc2ccc(OC)cc2)cc1)C1CCN(C2CCCCC2)CC1` (as salt: hydrochloride) [Compound 302] came in with a melting point of 227 to 230 °C.

Consider `COc1ccc([S+]([O-])c2ccc(C(C#N)N3CCN(C4CCCCC4)CC3)cc2)cc1` (single isomer, unassigned) [Compound 169], for which the “increase in ACh release” value in data set [1] (oral administration, brain region not stated) is “significant increase”. The “Peak ACh release as % increase over Baseline” value (shortened to “Peak ACh release as % increase”) in data set [1] (0.1 mg/kg i.p. (FIG. 2)) is recorded as 10%; in data set [1] (1 mg/kg i.p. (FIG. 2)), 30%; in data set [1] (3 mg/kg i.p. (FIG. 2)) it was 125%; in data set [1] (10 mg/kg i.p. (FIG. 2)), 150%; in data set [1] (30 mg/kg i.p. (FIG. 2)), 270%; in data set [1] (Compound 169 1 mg/kg i.p. (FIG. 4)) it was 40 (FIG. 4) %. The entries for the “Peak ACh release as % increase” value in the data set with ACh release from cortex (1 mg/kg i.p. (FIG. 1)), with ACh release from cortex (10 mg/kg i.p. (FIG. 1)) and in the data set with ACh release from cortex (30 mg/kg i.p. (FIG. 1)) were 75%, 400% and 1500%, respectively.

As for `C=C(c1ccc([S+]([O-])c2ccc(OC)cc2)cc1)C1CCN(C2CCCCC2)CC1` (single isomer, unassigned) [Compound 301], the melting point was 141 to 142 °C.

`COc1ccc([S+]([O-])c2ccc(C(=O)C3CCN(C4CCCCC4)CC3)cc2)cc1` (stereo not shown) [Compound 305] had a melting point of 125 °C. Besides, in data set [2], the Ki was in the range of 2.1 to 224 nM. For the same compound, the Ki in data set [3] was 0.33 to 36 nM. In data set [4], the Ki lay within 0.05 to 16.6 nM.

Consider `COc1ccc(S(=O)(=O)c2ccc([C@H](C)N3CCN(C4CCCCC4)C[C@H]3C)cc2)cc1` [Compound 656], for which the melting point is 227 to 230 °C. Moreover, in data set [4], the Ki was 0.03 to 0.48 nM.

`COc1ccc(S(=O)(=O)c2ccc([C@@H](C)N3CCN(C4CCCCC4)C[C@H]3C)cc2)cc1` [Compound 667] yielded a melting point of 241 to 242 °C. Besides, the Ki in data set [4] lay in the range of 0.03 to 0.48 nM.

For the compound `Nc1c2c(nc3ccccc13)CCCC2` [Tacrine, reference compound], the “Peak ACh release as % increase” value in data set [1] (Tacrine 3 mg/kg i.p. (FIG. 3)) is given as 30 (FIG. 3) %.

By melting point is commonly meant the temperature of the solid-liquid transition. Broadly, the Ki is the dissociation constant of the complex between target and ligand, obtained from inhibition or displacement.
